From a melting point compilation (Tetko et al.) come the findings set out here.

Structures are written as SMILES.

The compound `COc1ccsc1CN(C(=O)CCl)c1c(C)cccc1C` registered a melting point of 73 °C.

Take `COP(=S)(OC)Oc1ccc([N+](=O)[O-])c(C)c1`: the melting point was 3.4 °C.

The compound `CC(=O)c1ccc(O)cc1C` registered a melting point of 128 °C.

With `CC1C(C(=O)NN)C1C(=O)NN` (configuration not stated), the melting point is 242 to 245 °C.

Compound `C1CCC(C(C2CCCCC2)C2CCCCC2)CC1` registered a melting point of 48 °C.

For `NCCNCCO`, the melting point is -28 °C.

`C=C(CC(=O)OCC)C(=O)OCC`: the melting point amounted to 58.5 °C.

In the case of `O=[N+]([O-])c1ccc(N/N=C/c2ccccc2)c([N+](=O)[O-])c1`, the melting point was 240 °C.

Compound `Cn1cc(C=O)c2ccccc21` showed a melting point of 69 °C.

Regarding `CCOC(=O)CNc1cc(NCC(=O)OCC)c(N)cc1N`, the melting point was > 360 °C.

For `O=[N+]([O-])c1ccc(C(Cl)C(Cl)c2ccc(C(Cl)C(Cl)c3ccc([N+](=O)[O-])cc3[N+](=O)[O-])cc2)c([N+](=O)[O-])c1` (configuration not stated), the melting point fell in the range of 92 to 99 °C.

`Nc1cc2ccccc2cc1N` registered a melting point of 199 °C.

`CC(=O)N(c1ccccc1)c1nc(CCl)cs1` registered a melting point of 113 to 115 °C.

On to `Nc1ccc(C(F)(F)F)nc1`, for which the melting point lay within 39 to 40 °C.

In turn, `O=S(=O)(N(c1ccc(Cl)cn1)S(=O)(=O)C(F)(F)F)C(F)(F)F` returned a melting point of 46 °C.

Regarding `c1ccc(-c2nc3ccccc3nc2-c2cccc3ccccc23)cc1`, the melting point worked out at 138 °C.

`CC(=O)Nc1ccc(Cl)c(N)c1`: the melting point lay within 168 to 172 °C.

Compound `CC(C)c1ccc(CC(=O)O)cc1` came in with a melting point of 52 °C.

Turning to `Cc1cnc(CO)c(C)c1[N+](=O)[O-]`, the melting point is 67 °C.

Compound `CN(C)c1ccc(C2(c3ccc(N(C)C)cc3)OC(=O)c3cc(N(C)C)ccc32)cc1` displayed a melting point of 182 °C.

Regarding `O=C(CCl)Nc1ccc(Br)cc1`, the melting point lay in the range of 136 to 137 °C.

The compound `CC(=O)NCCCCCCNC(C)=O` registered a melting point of 128 to 129 °C.

As for `CC(C)C12C=CC(C)(CC1)OO2` (configuration not stated), the melting point was 3.3 °C.

`OC[C@H]1OC(Nc2ccccc2)C[C@@H]1O` (some centres not stated) came in with a melting point of 151 °C.

Compound `COC(=O)CCCCC(=O)O` came in with a melting point of 9 °C.

As for `CCc1nc(NC(=O)NS(=O)(=O)c2cccs2)nc(Cl)c1C`, the melting point lay within 187 to 188 °C.

In turn, `Cn1nc(-c2cc(OCC(=O)O)c(Cl)cc2F)c(Cl)c1OC(F)F` gave a melting point of 126 °C.

As to `COC=C(C(=O)OC)C(=O)OC`, the melting point amounted to 43 °C.

`CN(C)c1ccc(/C=C2\C(=O)C3CCC(C)(C2=O)C3(C)C)cc1` (configuration not stated) yielded a melting point of 152 to 153 °C.

The compound `O=C(C=CC=Cc1ccccc1)C=CC=Cc1ccccc1` had a melting point of 139 to 144 °C.

`NC(CSc1ncccc1C(F)(F)F)=NO` returned a melting point of 161 to 164 °C.

As to `O=C1C=CC2=CC(=O)C=CC2=C1`, the melting point is 132 °C.

For the compound `CC(C)[Si](C(C)C)(C(C)C)n1ccc2c(Br)cccc21`, the melting point was in the range of 62 to 65 °C.

As to `CC(C)CC(=O)NC(C(=O)NC(C(=O)NC(CC(C)C)C(O)CC(=O)NC(C)C(=O)NC(CC(C)C)C(O)CC(=O)O)C(C)C)C(C)C` (configuration not stated), the melting point came out at 233 °C.

The compound `CC(C)(C)c1cc2c(O)c(c1)Cc1cc(C(C)(C)C)cc(c1O)Cc1cc(C(C)(C)C)cc(c1O)Cc1cc(C(C)(C)C)cc(c1O)Cc1cc(C(C)(C)C)cc(c1O)Cc1cc(C(C)(C)C)cc(c1O)C2` displayed a melting point of 300 °C.

Take `c1ccc(-c2c(-c3[nH]c4ccccc4c3-c3ccccc3)[nH]c3ccccc23)cc1`: the melting point came out at 227 °C.

Regarding `Cc1ccc(C(c2ccc(C)o2)c2ccccc2[N+](=O)[O-])o1`, the melting point was 80 °C.

`COC1CCC=CO1` (configuration not stated) came in with a melting point of 16 °C.

On to `CCOC(=O)C(=CNc1cc(C)nn1C)C(=O)OCC`, for which the melting point is 85 to 88 °C.

On to `O=C(O)c1ccc(F)cc1[N+](=O)[O-]`, for which the melting point is 149 °C.

Take `CCOc1ccc(C(=O)OCCN(CC)CC)cc1`: the melting point amounted to 173 °C.

Consider `CC12CCC(C=CC1=O)C2(C)C` (configuration not stated), for which the melting point turned out to be 174 °C.

For `O=[N+]([O-])c1ccc(N=Nc2ccc(Nc3ccccc3)cc2)cc1`, the melting point came out at 160 °C.

In turn, `CC1(C)OC(c2ccco2)CN1C(=O)C(Cl)Cl` (configuration not stated) had a melting point of 97 °C.

For `CC(=O)C1CCC2C3CCC4=CC(=O)CCC4(C)C3CCC12C` (configuration not stated), the melting point was in the range of 128 to 132 °C.

In turn, `CC(=O)c1cc(C#N)c(=O)[nH]c1C` displayed a melting point of 230 to 232 °C.

The compound `Brc1cccc(COc2ccccc2)c1` had a melting point of 38 to 39 °C.

`CC1(C)C(Br)=C(Br)C(=O)C1Br` (configuration not stated): the melting point is 87 °C.

Compound `O=C(O)C(=CN(O)c1ccccc1)c1ccccc1` displayed a melting point of 75 °C.

For `CC1(C)C=[N+]([O-])C(C)(C)C=[N+]1[O-]`, the melting point lay in the range of 298 to 300 °C.

In turn, `Clc1ncc(Br)c(Cl)n1` had a melting point of 30 °C.

`COC(=O)C=Cc1ccc(C=CC(=O)OC)c(N)c1` showed a melting point of 159 °C.

As to `Cc1cccc(C(=O)Cl)c1`, the melting point was -23 °C.

With `Sc1nccs1`, the melting point turned out to be 78.5 °C.

`CC(C)(C)OC(=O)NCC1CCNCC1`: the melting point lay within 106 to 108 °C.

For `Oc1cc(Cl)c(-c2ccccc2)nn1`, the melting point lay within 235 to 236 °C.

Regarding `O=c1oc(-c2c(F)cccc2Cl)cc2ccccc12`, the melting point came to 241 °C.

`N#CC1=C(N)Oc2c(c(C(F)(F)F)nn2-c2ccccc2)C1c1ccc(Cl)cc1` (configuration not stated) gave a melting point of 221 °C.

Turning to `Cc1cc(C)c(O)c([N+](=O)[O-])c1`, the melting point amounted to 70 °C.

The compound `CNC(=O)C(F)(F)F` showed a melting point of 51 °C.

The compound `CC(C)OC(=O)Nc1cccc(Cl)c1` showed a melting point of 42 °C.

As for `Cc1ccc(C)c(OCCCC(C)(C)C(=O)O)c1`, the melting point worked out at 61 °C.

`COC(=O)c1ccc(OCNC(=O)c2ccccc2)cc1` had a melting point of 142 to 143 °C.

The compound `CC/C=C(\C)C(=O)O` gave a melting point of 24.4 °C.

In turn, `CCOC(=O)c1nn(-c2ccc(C)cc2)c(C)c1C(=O)c1noc(-c2ccc(Cl)cc2)c1S(=O)(=O)c1ccccc1` showed a melting point of 230 °C.

In the case of `OCc1ccc(Cn2cncn2)cc1`, the melting point fell in the range of 68 to 70 °C.

As for `CCc1cccc(C)c1N(COC(C)C)C(=O)CCl`, the melting point was determined as 21.6 °C.

Consider `CC(=O)C1C(=O)c2ccccc2CC1c1ccccc1` (configuration not stated), for which the melting point is 67 °C.

The compound `O=C(c1ccccc1)c1ccc(F)cc1` returned a melting point of 47 °C.

For `N#CC1=C(N)Oc2[nH]nc(C(F)(F)F)c2C1c1ccccc1Cl` (configuration not stated), the melting point is 181 °C.

`CC(C=O)=CN` yielded a melting point of 101 to 103 °C.

For the compound `O=C(Cl)c1cc2cc([N+](=O)[O-])ccc2s1`, the melting point lay in the range of 157 to 158 °C.

In turn, `COC(=O)COC(=O)c1ccc2c(O)c(C(=O)OC)oc2c1` came in with a melting point of 130 °C.

In turn, `CC(=O)O[C@H]1[C@H](OC(C)=O)[C@@H](S(=O)(=O)c2ccccc2)OC[C@H]1OC(C)=O` registered a melting point of 145 to 148 °C.

Consider `CCCCNC(=O)COC(=O)c1ccccc1`, for which the melting point amounted to 69.5 °C.

`CCCCNC(=O)NS(=O)(=O)c1ccc(N)cc1` displayed a melting point of 144 °C.

In turn, `O=P(O)(O)C(Cl)(Cl)P(=O)(O)O` had a melting point of 250 °C.

For `N#CCc1ccc(C(F)(F)F)cc1[N+](=O)[O-]`, the melting point stood at 40 °C.

The compound `Brc1c2ccccc2c(Br)c2ccccc12` had a melting point of 226 °C.

`CCOC(=O)c1[nH]c(C)c(Br)c1C` gave a melting point of 142 °C.

For the compound `O=C(O)c1cc(=O)cc(C(=O)O)o1`, the melting point was determined as 262 °C.

In turn, `NC(=O)N1c2ccccc2CC(=O)c2ccccc21` registered a melting point of 216 °C.

For `CC12CCC3C(CCC4CCCCC43C)C1CCC2=O` (configuration not stated), the melting point was 121 °C.

`COc1ccc2c(c1)CCC1C2CCC2(C)C(O)C(O)CC12` (configuration not stated) displayed a melting point of 159 °C.

For the compound `CC(c1ccccc1)C(NC(=O)OC(C)(C)C)C(=O)O` (configuration not stated), the melting point fell in the range of 100 to 105 °C.

Take `CC1(C)C(C=NO)=[N+]([O-])C(C)(C)N1O`: the melting point lay within 157 to 159 °C.

`Cc1ccc2c(c1)CC2=O` displayed a melting point of 53 °C.

With `Cc1cc(C(=O)O)ccc1Br`, the melting point turned out to be 216 °C.

`CC(C)(C)OC(=O)N1CCC[C@@H]1C(=O)O` had a melting point of 133 to 135 °C.

The compound `Cc1ccc([N+](=O)[O-])cc1S(=O)(=O)O` came in with a melting point of 133 °C.

Turning to `NC(Cc1c[nH]c2ccc(O)cc12)C(=O)O` (racemic), the melting point was 299 °C.

On to `O=C(NC(CO)C(=O)OCc1ccccc1)OCc1ccccc1` (configuration not stated), for which the melting point was determined as 83 °C.

Compound `N#Cc1ccc(CC(=O)O)cc1` gave a melting point of 151 °C.

As to `CC(=O)Nc1ccc(N)cc1C`, the melting point was 141 to 142 °C.

In turn, `NNC(=O)c1ccc(-c2ccccc2)cc1` came in with a melting point of 194 °C.

In turn, `CC(C)(C)C(N)C(=O)O` (racemic) registered a melting point of 300 °C.

As to `CC(C)(C)OC(=O)NC(=O)OC(C)(C)C`, the melting point lay within 114 to 117 °C.

For the compound `c1ccc(SCCSc2ccccc2)cc1`, the melting point stood at 69 °C.

In turn, `C1CCCCCCCC1` displayed a melting point of 11 °C.

Consider `O=C1OC(Cl)c2ccccc21` (configuration not stated), for which the melting point was found to be 60 °C.

`CC(=O)c1c(-c2c(Cl)cccc2Cl)noc1C` showed a melting point of 72 to 74 °C.

In turn, `CCOC(=O)NCc1ccccc1` showed a melting point of 49 °C.

As to `CC(=O)N(c1ccccc1)c1cc(N(C(C)=O)c2ccccc2)c([N+](=O)[O-])cc1[N+](=O)[O-]`, the melting point was found to be 233 °C.

With `FC(F)(Br)CBr`, the melting point was -61 °C.

In turn, `COc1cc(O)c2c(=O)c(O)c(-c3ccc(OCc4ccccc4)c(O)c3)oc2c1` displayed a melting point of 208 °C.

For the compound `CC(=O)N(C)c1ccccc1C`, the melting point was found to be 55.5 °C.

`CCOC(=O)c1c(SC)nn(C(=O)NNc2ccccc2)c1N` yielded a melting point of 205 °C.

Usually melting point stands for the temperature, or range, at which the solid turns liquid.
